{"source": "patent US10344025B2", "about": "“GLS1 inhibitors for treating disease” (Board of Regents, The University of Texas System, priority 2014, dated 2019)", "key": {"A549 cells": {"test_system": "A549 cells", "assay": "Proliferation Assay (A549 viability, Cell Titer Fluor, 72 hours)", "format": "cell-based", "in_short": "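Cell Titer Fluor fluorescence after 72 h compound treatment (0.5% DMSO, 37 °C, 5% CO2) of A549 cells plated 24 h earlier at 1000/well. Four-parameter logistic fitting gave IC50.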"}, "[1]": {"molecular_target": "purified recombinant human GAC (GLS1) (Homo sapiens (Human), UniProt O94925)", "sequence (O94925 other isoform, or with tags, fused parts or gaps)": "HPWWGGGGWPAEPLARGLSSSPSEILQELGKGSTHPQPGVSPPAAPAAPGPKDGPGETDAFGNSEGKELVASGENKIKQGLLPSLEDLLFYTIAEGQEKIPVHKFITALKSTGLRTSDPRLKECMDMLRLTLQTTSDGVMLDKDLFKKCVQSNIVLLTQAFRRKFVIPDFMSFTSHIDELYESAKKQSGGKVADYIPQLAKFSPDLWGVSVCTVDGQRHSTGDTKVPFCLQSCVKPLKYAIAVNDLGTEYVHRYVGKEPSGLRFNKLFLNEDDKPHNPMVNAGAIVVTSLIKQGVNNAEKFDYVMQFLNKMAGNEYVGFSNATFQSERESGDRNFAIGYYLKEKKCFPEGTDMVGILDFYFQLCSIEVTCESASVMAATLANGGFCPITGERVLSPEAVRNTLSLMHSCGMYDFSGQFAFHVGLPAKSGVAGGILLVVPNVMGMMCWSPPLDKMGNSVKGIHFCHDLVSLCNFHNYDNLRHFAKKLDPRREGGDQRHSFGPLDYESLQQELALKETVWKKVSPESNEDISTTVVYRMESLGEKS", "assay": "GLS1 Enzymatic Activity Assay (dual-coupled enzymatic assay, resorufin/Amplex UltraRed readout);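 note: glutamate from GAC coupled via glutamate oxidase and peroxidase to resorufin, read as fluorescence (ex 530, em 590 nm) kinetically or at 20 min, four-parameter logistic IC50 fit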", "format": "biochemical"}}, "note": "Where two headings read alike, the source gives them in different places."}
{"smiles": "O=C(NCc1cc(OC(F)(F)F)ccc1F)c1cn(CCC(F)Cn2cc(C(=O)NCc3cccc(C(F)(F)F)n3)nn2)nn1", "note": "(centres unmarked) [Example 425, 1-{2-fluoro-4-[4-({[2-fluoro-5-(trifluoromethoxy)phenyl]methyl}carbamoyl)-1H-1,2,3-triazol-1-yl]butyl}-N-{[6-(trifluoromethyl)pyridin-2-yl]methyl}-1H-1,2,3-triazole-4-carboxamide]", "values": [{"measurement": "EC50", "setting": "A549 cells; Homo sapiens, A549, 72 h", "result": "< 100", "unit": "nM"}, {"measurement": "IC50", "setting": "[1]", "result": "< 100", "unit": "nM"}]}
{"smiles": "CNC(=O)c1cn(C[C@@H](F)CCc2nnc(NC(=O)Cc3cccc(OC(F)(F)F)c3)s2)nn1", "note": "[Example 193, (S)-1-(2-fluoro-4-(5-(2-(3-(trifluoromethoxy)phenyl)acetamido)-1,3,4-thiadiazol-2-yl)butyl)-N-methyl-1H-1,2,3-triazole-4-carboxamide]", "values": [{"measurement": "EC50", "setting": "A549 cells", "result": "500 to 5000", "unit": "nM"}, {"measurement": "IC50", "setting": "[1]", "result": "< 100", "unit": "nM"}]}
{"smiles": "O=C(NCc1cncc(C(F)(F)F)c1)c1cn(CCCCn2cc(C(=O)NCC3CCC3)nn2)nn1", "note": "[Example 93, N-(cyclobutylmethyl)-1-{4-[4-({[5-(trifluoromethyl)pyridin-3-yl]methyl}carbamoyl)-1H-1,2,3-triazol-1-yl]butyl}-1H-1,2,3-triazole-4-carboxamide]", "values": [{"measurement": "EC50", "setting": "A549 cells; Homo sapiens, A549, 72 h", "result": "500 to 5000", "unit": "nM"}, {"measurement": "IC50", "setting": "[1]", "result": "100 to 500", "unit": "nM"}]}
{"smiles": "CC(C)(O)CNC(=O)c1nnc(CCCCn2cc(C(=O)NCc3cccc(OC(F)(F)F)c3)nn2)s1", "note": "[Example 48, N-(2-hydroxy-2-methylpropyl)-5-{4-[4-({[3-(trifluoromethoxy)phenyl]methyl}carbamoyl)-1H-1,2,3-triazol-1-yl]butyl}-1,3,4-thiadiazole-2-carboxamide]", "values": [{"measurement": "EC50", "setting": "A549 cells; Homo sapiens, A549, 72 h", "result": "500 to 5000", "unit": "nM"}, {"measurement": "IC50", "setting": "[1]", "result": "500 to 5000", "unit": "nM"}]}
{"smiles": "CC(NC(=O)c1cn(CCCCn2cc(C(=O)NCc3cc(C(F)(F)F)ccn3)nn2)nn1)c1cccc(OC(F)(F)F)c1", "note": "(centres unmarked) [Example 109, 1-{4-[4-({1-[3-(trifluoromethoxy)phenyl]ethyl}carbamoyl)-1H-1,2,3-triazol-1-yl]butyl}-N-{[4-(trifluoromethyl)pyridin-2-yl]methyl}-1H-1,2,3-triazole-4-carboxamide]", "values": [{"measurement": "EC50", "setting": "A549 cells; Homo sapiens, A549, 72 h", "result": "100 to 500", "unit": "nM"}, {"measurement": "IC50", "setting": "[1]", "result": "< 100", "unit": "nM"}]}
{"smiles": "CNC(=O)c1cn(CC(F)CCn2cc(NC(=O)Cc3cc(OC(F)(F)F)ccc3F)nn2)nn1", "note": "(centres unmarked) [Example 539, 1-[2-fluoro-4-(4-{2-[2-fluoro-5-(trifluoromethoxy)phenyl]acetamido}-1H-1,2,3-triazol-1-yl)butyl]-N-methyl-1H-1,2,3-triazole-4-carboxamide]", "values": [{"measurement": "EC50", "setting": "A549 cells; Homo sapiens, A549, 72 h", "result": "100 to 500", "unit": "nM"}, {"measurement": "IC50", "setting": "[1]", "result": "< 100", "unit": "nM"}]}
{"smiles": "CNC(=O)c1cn(CC(F)CCc2ccc(NC(=O)Cc3cc(OCC(F)(F)F)ccn3)nn2)nn1", "note": "(centres unmarked) [Example 262, 1-(2-Fluoro-4-(6-(2-(4-(2,2,2-trifluoroethoxy)pyridin-2-yl)acetamido)pyridazin-3-yl)butyl)-N-methyl-1H-1,2,3-triazole-4-carboxamide]", "values": [{"measurement": "EC50", "setting": "A549 cells; Homo sapiens", "result": "< 100", "unit": "nM"}, {"measurement": "IC50", "setting": "[1]", "result": "< 100", "unit": "nM"}]}
{"smiles": "O=C(Cc1cccc(OC(F)(F)F)c1)Nc1cn(CC(F)CCn2cc(C(=O)NCc3ccccn3)nn2)nn1", "note": "(centres unmarked) [Example 327, 1-[3-fluoro-4-(4-{2-[3-(trifluoromethoxy)phenyl]acetamido}-1H-1,2,3-triazol-1-yl)butyl]-N-(pyridin-2-ylmethyl)-1H-1,2,3-triazole-4-carboxamide]", "values": [{"measurement": "EC50", "setting": "A549 cells; Homo sapiens, A549, 72 h", "result": "< 100", "unit": "nM"}, {"measurement": "IC50", "setting": "[1]", "result": "< 100", "unit": "nM"}]}
{"smiles": "O=C(NCc1cccc(F)c1)c1cn(CCCCn2cc(C(=O)NCc3cc(C(F)(F)F)ccn3)nn2)nn1", "note": "[Example 112, 1-[4-(4-{[(3-fluorophenyl)methyl]carbamoyl}-1H-1,2,3-triazol-1-yl)butyl]-N-{[4-(trifluoromethyl)pyridin-2-yl]methyl}-1H-1,2,3-triazole-4-carboxamide]", "values": [{"measurement": "EC50", "setting": "A549 cells; Homo sapiens, A549, 72 h", "result": "100 to 500", "unit": "nM"}, {"measurement": "IC50", "setting": "[1]", "result": "100 to 500", "unit": "nM"}]}
{"smiles": "O=C(NCc1cccc(OC(F)(F)F)c1)c1cn(CCCCc2nnc(C(=O)NCc3ccccn3)s2)nn1", "note": "[Example 47, N-(pyridin-2-ylmethyl)-5-{4-[4-({[3-(trifluoromethoxy)phenyl]methyl}carbamoyl)-1H-1,2,3-triazol-1-yl]butyl}-1,3,4-thiadiazole-2-carboxamide]", "values": [{"measurement": "EC50", "setting": "A549 cells; Homo sapiens, A549, 72 h", "result": "100 to 500", "unit": "nM"}, {"measurement": "IC50", "setting": "[1]", "result": "< 100", "unit": "nM"}]}
{"smiles": "O=C(NCc1cncc(C(F)(F)F)c1)c1cn(CCCCn2cc(C(=O)NCC3CCCO3)nn2)nn1", "note": "(centres unmarked) [Example 92, N-(oxolan-2-ylmethyl)-1-{4-[4-({[5-(trifluoromethyl)pyridin-3-yl]methyl}carbamoyl)-1H-1,2,3-triazol-1-yl]butyl}-1H-1,2,3-triazole-4-carboxamide]", "values": [{"measurement": "EC50", "setting": "A549 cells; Homo sapiens, A549, 72 h", "result": "500 to 5000", "unit": "nM"}, {"measurement": "IC50", "setting": "[1]", "result": "500 to 5000", "unit": "nM"}]}
{"smiles": "CNC(=O)c1cn(CCCCc2ccc(NC(=O)Cc3cn(-c4cccc(OC(F)(F)F)c4)cn3)nn2)nn1", "note": "[Example 604, N-methyl-1-(4-(6-(2-(1-(3-(trifluoromethoxy)phenyl)-1H-imidazol-4-yl)acetamido)pyridazin-3-yl)butyl)-1H-1,2,3-triazole-4-carboxamide]", "values": [{"measurement": "EC50", "setting": "A549 cells; Homo sapiens, A549, 72 h", "result": "< 100", "unit": "nM"}, {"measurement": "IC50", "setting": "[1]", "result": "< 100", "unit": "nM"}]}
{"smiles": "O=C(NCc1ccc(C(F)(F)F)cn1)c1cn(CC(F)CCc2nnc(C(=O)NCc3cccc(C(F)(F)F)n3)s2)nn1", "note": "(centres unmarked) [Example 492, 5-{3-fluoro-4-[4-({[5-(trifluoromethyl)pyridin-2-yl]methyl}carbamoyl)-1H-1,2,3-triazol-1-yl]butyl}-N-{[6-(trifluoromethyl)pyridin-2-yl]methyl}-1,3,4-thiadiazole-2-carboxamide]", "values": [{"measurement": "EC50", "setting": "A549 cells; Homo sapiens, A549, 72 h", "result": "100 to 500", "unit": "nM"}, {"measurement": "IC50", "setting": "[1]", "result": "< 100", "unit": "nM"}]}
{"smiles": "O=C(Cc1ccncc1)Nc1ccc(CCCCn2cc(C(=O)NCc3cc(OC(F)(F)F)ccc3F)nn2)nn1", "note": "[Example 590, N-(2-fluoro-5-(trifluoromethoxy)benzyl)-1-(4-(6-(2-(pyridin-4-yl)acetamido)pyridazin-3-yl)butyl)-1H-1,2,3-triazole-4-carboxamide]", "values": [{"measurement": "EC50", "setting": "A549 cells; Homo sapiens, A549, 72 h", "result": "< 100", "unit": "nM"}, {"measurement": "IC50", "setting": "[1]", "result": "< 100", "unit": "nM"}]}
{"smiles": "CNC(=O)c1cn(C[C@@H](F)CCc2nnc(NC(=O)Cc3cccc(OC(F)(F)F)c3)s2)nn1", "note": "[Example 239, (S)-1-(2-fluoro-4-(5-(2-(3-(trifluoromethoxy)phenyl)acetamido)-1,3,4-thiadiazol-2-yl)butyl)-N-methyl-1H-1,2,3-triazole-4-carboxamide]", "values": [{"measurement": "EC50", "setting": "A549 cells", "result": "100 to 500", "unit": "nM"}, {"measurement": "IC50", "setting": "[1]", "result": "< 100", "unit": "nM"}]}
{"smiles": "O=C(Cc1cccc(OC(F)(F)F)c1)Nc1cn(CCC(F)Cn2cc(C(=O)NCc3cc(C(F)(F)F)ccn3)nn2)nn1", "note": "(centres unmarked) [Example 407, 1-[2-fluoro-4-(4-{2-[3-(trifluoromethoxy)phenyl]acetamido}-1H-1,2,3-triazol-1-yl)butyl]-N-{[4-(trifluoromethyl)pyridin-2-yl]methyl}-1H-1,2,3-triazole-4-carboxamide]", "values": [{"measurement": "EC50", "setting": "A549 cells; Homo sapiens, A549, 72 h", "result": "< 100", "unit": "nM"}, {"measurement": "IC50", "setting": "[1]", "result": "< 100", "unit": "nM"}]}
{"smiles": "O=C(CN1CC(F)C1)Nc1cn(CC(F)CCn2cc(C(=O)NCc3cc(C(F)(F)F)ccn3)nn2)nn1", "note": "(centres unmarked) [Example 401, 1-(3-fluoro-4-{4-[2-(3-fluoroazetidin-1-yl)acetamido]-1H-1,2,3-triazol-1-yl}butyl)-N-{[4-(trifluoromethyl)pyridin-2-yl]methyl}-1H-1,2,3-triazole-4-carboxamide]", "values": [{"measurement": "EC50", "setting": "A549 cells; Homo sapiens, A549, 72 h", "result": "500 to 5000", "unit": "nM"}, {"measurement": "IC50", "setting": "[1]", "result": "100 to 500", "unit": "nM"}]}
{"smiles": "CNC(=O)c1cn(CC(F)CCc2nnc(NC(=O)Cc3cc(-c4cccc(OC(F)(F)F)c4)ccn3)s2)nn1", "note": "(centres unmarked) [Example 397, 1-(2-fluoro-4-(5-(2-(4-(3-(trifluoromethoxy)phenyl)pyridin-2-yl)acetamido)-1,3,4-thiadiazol-2-yl)butyl)-N-methyl-1H-1,2,3-triazole-4-carboxamide 2,2,2-trifluoroacetate]", "values": [{"measurement": "EC50", "setting": "A549 cells; Homo sapiens, A549, 72 h", "result": "< 100", "unit": "nM"}, {"measurement": "IC50", "setting": "[1]", "result": "< 100", "unit": "nM"}]}
{"smiles": "O=C(CC1CCCC1)Nc1cn(CCCCn2cc(C(=O)NCc3cccnc3)nn2)nn1", "note": "[Example 309, 1-{4-[4-(2-cyclopentylacetamido)-1H-1,2,3-triazol-1-yl]butyl}-N-(pyridin-3-ylmethyl)-1H-1,2,3-triazole-4-carboxamide]", "values": [{"measurement": "EC50", "setting": "A549 cells; Homo sapiens, A549, 72 h", "result": "100 to 500", "unit": "nM"}, {"measurement": "IC50", "setting": "[1]", "result": "100 to 500", "unit": "nM"}]}
